Measurements from the NIST ThermoML archive (doi:10.1021/acs.jced.8b00163).
Several values for one entry are separate records, joined by “and”; a condition that tells them apart may be missing. Identical values can stand only once.

Conditions: for mass density: 100 kPa, Vibrating tube method; for mass density / viscosity: Liquid; for surface tension liquid-gas / viscosity: Surface laser light scattering (SLLS)

CCCCCCCC(C)C [2-methylnonane]
Conditions	mass density	surface tension liquid-gas [mN/m]	viscosity [mPa·s]
283.15 K	735.134 kg/m3	–	–
288.15 K	731.326 kg/m3	–	–
293.15 K	727.469 kg/m3	–	–
298.15 K	723.54 kg/m3 and 723.632 kg/m3	21.45	0.8268
303.15 K	719.96 kg/m3	–	–
308.15 K	716.109 kg/m3	–	–
313.15 K	712.275 kg/m3	–	–
318.15 K	708.49 kg/m3	–	–
323.15 K	704.14 kg/m3 and 704.628 kg/m3	19.65	0.6035
328.15 K	700.722 kg/m3	–	–
333.15 K	696.794 kg/m3	–	–
338.15 K	692.852 kg/m3	–	–
343.15 K	688.883 kg/m3	–	–
348.15 K	684.896 kg/m3 and 684.45 kg/m3	17.76	0.4629
353.15 K	680.89 kg/m3	–	–
358.15 K	676.827 kg/m3	–	–
363.15 K	672.811 kg/m3	–	–
373.15 K	664.34 kg/m3	15.75	0.3623
398.15 K	643.46 kg/m3	13.64	0.2897
423.15 K	621.59 kg/m3	11.72	0.2365
448.15 K	–	9.9	0.1989

CCCCCC(C)CCC (stereo not drawn) [4-methylnonane]
Conditions	mass density	surface tension liquid-gas [mN/m]	viscosity [mPa·s]
283.15 K	739.362 kg/m3	–	–
288.15 K	735.555 kg/m3	–	–
293.15 K	731.743 kg/m3	–	–
298.15 K	728.35 kg/m3 and 727.929 kg/m3	21.67	0.7638
303.15 K	724.098 kg/m3	–	–
308.15 K	720.253 kg/m3	–	–
313.15 K	716.396 kg/m3	–	–
318.15 K	712.527 kg/m3	–	–
323.15 K	708.82 kg/m3 and 708.634 kg/m3	20.06	0.5533
328.15 K	704.729 kg/m3	–	–
333.15 K	700.808 kg/m3	–	–
338.15 K	696.873 kg/m3	–	–
343.15 K	692.918 kg/m3	–	–
348.15 K	688.94 kg/m3 and 689 kg/m3	17.93	0.4161
353.15 K	684.943 kg/m3	–	–
358.15 K	680.922 kg/m3	–	–
363.15 K	676.877 kg/m3	–	–
373.15 K	668.81 kg/m3	15.92	0.3279
398.15 K	647.86 kg/m3	13.77	0.2644
423.15 K	626 kg/m3	11.89	0.2168
448.15 K	–	9.95	0.1801
